# Source: article PMC12352620, “Fragment-based discovery of dual ligand pharmacophores for lipid-sensing transcription factors for designed polypharmacology” (RSC Medicinal Chemistry, 2025)
# Legend:
# Type in all cases: cell-based
# PPARδ = target: T1, PPARδ (Homo sapiens, UniProt Q03181); assay: Gal4-hybrid reporter gene assay PPARδ (selectivity); conditions: mean, n ≥ 3, Fig. 8
# T1 construct: expressed in transfected cells; host or cells: HEK293T
# T1 sequence (Q03181 138-441 limits assumed): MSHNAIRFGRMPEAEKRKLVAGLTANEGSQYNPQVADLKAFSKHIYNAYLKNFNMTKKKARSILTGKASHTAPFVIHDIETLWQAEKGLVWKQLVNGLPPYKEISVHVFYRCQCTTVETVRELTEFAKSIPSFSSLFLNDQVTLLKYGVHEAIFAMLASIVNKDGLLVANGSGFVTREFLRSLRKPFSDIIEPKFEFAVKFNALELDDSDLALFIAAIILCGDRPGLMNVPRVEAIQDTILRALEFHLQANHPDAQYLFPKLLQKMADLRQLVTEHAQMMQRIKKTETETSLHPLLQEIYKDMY
# Description: (§1) NR modulation was determined as described previously[45] in Gal4 hybrid reporter gene assays in HEK293T cells (German Collection of Microorganisms and Cell Culture GmbH, DSMZ) using pFR-Luc (Stratagene, La Jolla, CA, USA; reporter), pRL-SV40 (Promega, Madison, WI, USA; internal control) and the hybrid receptor clones pFA-CMV-hTHRα-LBD,[46] pFA-CMV-hPPARγ-LBD,[47] pFA-CMV-hFXR-LBD,[48] and pFA-CMV-hRXRα-LBD,[49] coding for the hinge region and ligand binding domain of the canonical isoform of the respective NR. Cells were cultured in Dulbecco's modified Eagle's medium (DMEM), high glucose supplemented with 10% fetal calf serum (FCS), sodium pyruvate (1 mM), penicillin (100 U mL^−1), and streptomycin (100 μg mL^−1) at 37 °C and 5% CO2 and seeded in 96-well plates (3 × 10^4 cells per well). After 24 h, medium was changed to Opti-MEM without supplements and cells were transiently transfected using Lipofectamine LTX reagent (Invitrogen, Carlsbad, CA, USA) according to the manufacturer's protocol. Five hours after transfection, cells were incubated with the test compounds in Opti-MEM supplemented with penicillin (100 U mL^−1), streptomycin (100 μg mL^−1) and 0.1% DMSO for 16 h before luciferase activity was measured using the Dual-Glo Luciferase Assay System (Promega) according to the manufacturer's protocol on a Tecan Spark luminometer (Tecan Deutschland GmbH, Crailsheim, Germany). Firefly luminescence was divided by Renilla luminescence and multiplied by 1000 resulting in relative light units (RLU) to normalize for transfection efficiency and cell growth. Fold activation was obtained by dividing the mean RLU of test compound by the mean RLU of the untreated control. All samples were tested in at least three biologically independent experiments in duplicates. For dose–response curve fitting and calculation of EC50 values, the equation “[agonist] vs. response − variable slope (four parameters)” was used in GraphPad Prism (version 7.00, GraphPad Software, La Jolla, CA, USA). For selectivity profiling, the hybrid reporter gene assay was performed with Gal4 fusion receptor plasmids for RARα, PPARα, PPARδ, VDR, CAR and LXRα. The following reference agonists were used: triiodothyronine (1 μM, THR), all-trans retinoic acid (1 μM, RAR), GW7647 (1 μM, PPARα), pioglitazone (1 μM, PPARγ), L165041 (1 μM, PPARδ), calcitriol (1 μM, VDR), CITCO (1 μM, CAR), T0901317 (1 μM, LXR), GW4064 (1 μM, FXR), bexarotene (1 μM, RXR).
# VDR = target: T2, VDR (Homo sapiens, UniProt P11473); assay: Gal4-hybrid reporter gene assay VDR (selectivity); conditions: mean, n ≥ 3, Fig. 8
# T2 construct: expressed in transfected cells; host or cells: HEK293T
# T2 sequence (P11473 97-427 limits assumed): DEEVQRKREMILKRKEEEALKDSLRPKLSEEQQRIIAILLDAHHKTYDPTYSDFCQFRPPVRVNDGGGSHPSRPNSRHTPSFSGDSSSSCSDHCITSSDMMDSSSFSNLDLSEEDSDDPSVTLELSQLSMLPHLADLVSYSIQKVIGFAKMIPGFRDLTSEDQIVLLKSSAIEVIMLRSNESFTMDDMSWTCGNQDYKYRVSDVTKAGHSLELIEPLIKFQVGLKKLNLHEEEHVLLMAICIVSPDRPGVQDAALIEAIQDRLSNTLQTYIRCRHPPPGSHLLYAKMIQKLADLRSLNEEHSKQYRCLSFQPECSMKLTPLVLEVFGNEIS
# Description: as §1
# THRα = target: T3, THRα (Homo sapiens, UniProt P10827); assay: Gal4-hybrid reporter gene assay THRα; conditions: n ≥ 3; for fold act. THRα: mean, Fig. 8; for EC50: HEK293T, Gal4-hybrid reporter, Inactive = tested 1–300 μM; for EC50 / max. fold activation THRα: mean ± S.E.M.; for max. fold activation THRα: maximum reporter activation vs DMSO (0.1%) treated cells
# T3 construct: expressed in transfected cells; host or cells: HEK293T
# T3 sequence (P10827 128-410 isoform P10827-2 limits assumed): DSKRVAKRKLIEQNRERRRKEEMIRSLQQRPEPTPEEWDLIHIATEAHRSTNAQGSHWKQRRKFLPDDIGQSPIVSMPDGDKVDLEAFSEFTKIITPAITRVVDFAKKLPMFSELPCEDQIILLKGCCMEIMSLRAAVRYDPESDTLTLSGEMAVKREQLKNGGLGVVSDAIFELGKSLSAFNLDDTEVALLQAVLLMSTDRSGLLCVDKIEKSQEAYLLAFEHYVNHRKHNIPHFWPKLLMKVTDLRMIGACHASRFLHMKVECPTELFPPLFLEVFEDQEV
# Description: as §1
# FXR = target: T4, FXR (Homo sapiens, UniProt Q96RI1); assay: Gal4-hybrid reporter gene assay FXR; conditions: n ≥ 3; for fold act. FXR: mean, Fig. 8; for EC50 FXR / EC50: HEK293T, Gal4-hybrid reporter, Inactive = tested 1–300 μM; for EC50 FXR / EC50 / max. fold activation FXR: mean ± S.E.M.; for max. fold activation FXR: maximum reporter activation vs DMSO (0.1%) treated cells
# T4 construct: expressed in transfected cells; host or cells: HEK293T
# T4 sequence (Q96RI1 262-486 limits assumed): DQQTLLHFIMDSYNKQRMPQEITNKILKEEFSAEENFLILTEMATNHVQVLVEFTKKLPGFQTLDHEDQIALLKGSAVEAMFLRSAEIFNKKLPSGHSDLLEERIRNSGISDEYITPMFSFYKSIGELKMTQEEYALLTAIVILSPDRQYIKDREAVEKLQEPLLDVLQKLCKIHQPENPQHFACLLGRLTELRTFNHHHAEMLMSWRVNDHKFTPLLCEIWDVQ
# Description: as §1
SMILES,fold act. PPARδ (PPARδ; 30 μM),fold act. VDR (VDR; 30 μM),fold act. THRα (THRα; 30 μM),EC50 (THRα),max. fold activation THRα (THRα),fold act. FXR (FXR; 30 μM),EC50 FXR (FXR),fold act. PPARδ (PPARδ; 10 μM),fold act. VDR (VDR; 10 μM),fold act. THRα (THRα; 10 μM),fold act. FXR (FXR; 10 μM),EC50 (FXR),max. fold activation FXR (FXR),fold act. PPARδ (PPARδ; 40 μM),fold act. VDR (VDR; 40 μM),fold act. THRα (THRα; 40 μM),fold act. FXR (FXR; 40 μM)
"O=C(O)/C=C/C(=O)c1ccc(-c2ccccc2)cc1 [4.7, (E)-4-([1,1′-Biphenyl]-4-yl)-4-oxobut-2-enoic acid]",3 fold,2 fold,15 fold,16 ± 7 µM,(14.8 ± 1.0-fold),1 fold,Inactive,,,,,,,,,,
"CCOc1ccc(-c2cc(C(=O)O)co2)cc1 [3.1, 5-(4-Ethoxyphenyl)furan-3-carboxylic acid]",,,,1.5 ± 0.2 µM,(3.7 ± 0.2-fold),,,2 fold,3 fold,4 fold,6 fold,1.3 ± 0.3 µM,(6.4 ± 0.3-fold),,,,
"O=C(O)/C=C/C(=O)c1ccc(Cl)cc1Cl [4.6, (E)-4-Oxo-4-(2,4-dichlorophenyl)but-2-enoic acid]",1 fold,1 fold,2 fold,43 ± 3 µM,(4.2 ± 0.3-fold),1 fold,Inactive,,,,,,,,,,
"O=C(O)/C=C/C(=O)c1ccc2ccccc2c1 [4.8, (E)-4-Oxo-4-(naphthalen-2-yl)but-2-enoic acid]",,,,39 ± 1 µM,(28 ± 1-fold),,,,,,,26 ± 4 µM,(7 ± 1-fold),3 fold,3 fold,16 fold,6 fold
